# According to US10450260B2, “NO- and H2S-releasing compounds” (RESEARCH FOUNDATION OF THE CITY UNIVERSITY OF NEW YORK, priority 2011, dated 2019):
# System: HT-29 cells xenograft
# Assay: HT-29 tumor xenograft in athymic nude mice
# Format: in vivo, mouse
# Protocol: Male athymic nude (NU/NU) mice (N=8), age 5 weeks, were purchased from Charles River Laboratories, Inc., (Wilmington, Mass.). HT-29 cells (2×10^6) suspended in 50% v/v Matrigel (BD Biosciences, San Jose, Calif.) were inoculated subcutaneously in the right flanks of each mouse. When the tumors reached an average sizes of ˜80 mm^3, the mice were randomly divided (N=4/group) and gavaged daily for 18 days with either vehicle (1% methylcelloluse) or NOSH-1 (100 mg/kg body weight). Tumor size (length and width) was measured at 3 day intervals with an electronic caliper from which tumor volume was calculated as length×width^2/2. The mice were weighed every 3 days and were closely monitored for signs of toxicity.
structure (smiles),measurement,setting,value
"O=C(CCCO[N+](=O)[O-])Oc1ccccc1C(=O)Oc1ccc(-c2cc(=S)ss2)cc1 [NOSH-1, 4-(3-thioxo-3H-1,2-dithiol-5-yl)phenyl 2-((4-(nitrooxy)butanoyl)oxy)benzoate]",signs of toxicity,100 mg/kg daily for 18 days,no overt signs of toxicity
same,mean reduction of tumor volume,"100 mg/kg daily for 18 days, vs control",85%
same,mean tumor volume,"100 mg/kg daily gavage for 18 days, control 2300±200",350±35 mm^3
same,tumor volume versus vehicle (FIG. 7B),"6 days after treatment to sacrifice, P<0.05 day 6, P<0.01 days 9-18",significantly reduced tumor volume
same,"average weight of the mice, beginning of the study","treated mice, 100 mg/kg daily",21.7 ± 0.82 g
same,"average weight of the mice, end of the study","treated mice, 100 mg/kg daily for 18 days",27.2 ± 1.1 g
